Data: PMC8217266 (Clinical Pharmacology and Therapeutics, 2021)

What was measured:
[1] = molecular target: T1, human OATP2B1 (Homo sapiens, UniProt O94956); assay: cell-based; settings: IC50 OATP2B1, experimental, mean ± SD; stable cells; substrate ES
T1 sequence (O94956 1-709): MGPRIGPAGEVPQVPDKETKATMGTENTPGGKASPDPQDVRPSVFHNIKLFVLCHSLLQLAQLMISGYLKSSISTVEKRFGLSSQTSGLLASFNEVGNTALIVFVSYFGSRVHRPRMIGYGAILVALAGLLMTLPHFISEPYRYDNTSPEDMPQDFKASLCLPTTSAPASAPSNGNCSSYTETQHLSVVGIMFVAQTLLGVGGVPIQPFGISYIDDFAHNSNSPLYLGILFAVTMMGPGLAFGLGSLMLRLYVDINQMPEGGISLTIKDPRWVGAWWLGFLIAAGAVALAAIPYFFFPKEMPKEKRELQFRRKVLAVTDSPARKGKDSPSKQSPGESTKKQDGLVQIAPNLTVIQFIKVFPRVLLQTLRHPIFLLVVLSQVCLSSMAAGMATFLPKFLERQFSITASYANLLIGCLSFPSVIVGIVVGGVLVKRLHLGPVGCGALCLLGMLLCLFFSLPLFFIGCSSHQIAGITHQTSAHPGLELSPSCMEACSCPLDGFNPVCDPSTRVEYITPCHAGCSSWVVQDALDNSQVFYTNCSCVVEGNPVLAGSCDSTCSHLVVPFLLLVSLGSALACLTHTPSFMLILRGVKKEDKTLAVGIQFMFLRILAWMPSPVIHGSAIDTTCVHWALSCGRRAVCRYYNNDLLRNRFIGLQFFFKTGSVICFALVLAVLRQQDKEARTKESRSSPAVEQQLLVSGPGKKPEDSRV

[2] = molecular target: T2, BCRP (Homo sapiens, UniProt Q9UNQ0); assay: biochemical
T2 sequence (Q9UNQ0 1-655): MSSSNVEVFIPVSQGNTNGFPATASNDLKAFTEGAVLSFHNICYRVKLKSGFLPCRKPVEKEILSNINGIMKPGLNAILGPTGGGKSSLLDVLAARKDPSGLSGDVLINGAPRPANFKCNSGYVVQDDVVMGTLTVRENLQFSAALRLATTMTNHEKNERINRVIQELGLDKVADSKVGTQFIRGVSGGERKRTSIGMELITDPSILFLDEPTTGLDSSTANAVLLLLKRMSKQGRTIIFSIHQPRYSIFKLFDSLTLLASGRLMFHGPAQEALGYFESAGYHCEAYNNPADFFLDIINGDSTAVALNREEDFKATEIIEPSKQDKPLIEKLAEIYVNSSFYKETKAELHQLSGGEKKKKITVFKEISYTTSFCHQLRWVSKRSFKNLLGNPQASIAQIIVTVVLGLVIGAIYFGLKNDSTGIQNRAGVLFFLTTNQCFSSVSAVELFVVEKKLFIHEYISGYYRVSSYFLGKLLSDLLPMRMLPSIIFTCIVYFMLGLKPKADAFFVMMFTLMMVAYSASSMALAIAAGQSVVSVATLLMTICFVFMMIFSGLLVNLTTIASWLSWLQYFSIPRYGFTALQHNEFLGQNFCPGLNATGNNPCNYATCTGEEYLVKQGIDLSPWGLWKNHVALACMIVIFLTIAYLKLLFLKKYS

[3] = molecular target: T3, human OCT1 (Homo sapiens, UniProt O15245); assay: cell-based
T3 sequence (O15245 1-554): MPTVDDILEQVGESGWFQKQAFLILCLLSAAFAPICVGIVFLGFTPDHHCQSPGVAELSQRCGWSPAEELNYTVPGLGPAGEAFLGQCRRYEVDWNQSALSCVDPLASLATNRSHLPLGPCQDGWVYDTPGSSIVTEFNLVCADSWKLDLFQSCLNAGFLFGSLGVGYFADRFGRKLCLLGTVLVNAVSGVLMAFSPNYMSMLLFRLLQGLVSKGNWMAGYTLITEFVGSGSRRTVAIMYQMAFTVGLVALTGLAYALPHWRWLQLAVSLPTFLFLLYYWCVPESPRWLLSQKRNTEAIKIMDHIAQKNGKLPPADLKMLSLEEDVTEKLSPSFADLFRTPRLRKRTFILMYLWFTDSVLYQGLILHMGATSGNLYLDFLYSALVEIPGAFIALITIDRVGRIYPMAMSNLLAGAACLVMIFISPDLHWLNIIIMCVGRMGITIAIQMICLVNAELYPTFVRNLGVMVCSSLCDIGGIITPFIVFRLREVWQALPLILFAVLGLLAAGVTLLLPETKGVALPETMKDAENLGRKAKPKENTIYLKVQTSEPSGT

[4] = molecular target: T4, human MATE1 (Homo sapiens, UniProt Q96FL8)
T4 sequence (Q96FL8 1-570): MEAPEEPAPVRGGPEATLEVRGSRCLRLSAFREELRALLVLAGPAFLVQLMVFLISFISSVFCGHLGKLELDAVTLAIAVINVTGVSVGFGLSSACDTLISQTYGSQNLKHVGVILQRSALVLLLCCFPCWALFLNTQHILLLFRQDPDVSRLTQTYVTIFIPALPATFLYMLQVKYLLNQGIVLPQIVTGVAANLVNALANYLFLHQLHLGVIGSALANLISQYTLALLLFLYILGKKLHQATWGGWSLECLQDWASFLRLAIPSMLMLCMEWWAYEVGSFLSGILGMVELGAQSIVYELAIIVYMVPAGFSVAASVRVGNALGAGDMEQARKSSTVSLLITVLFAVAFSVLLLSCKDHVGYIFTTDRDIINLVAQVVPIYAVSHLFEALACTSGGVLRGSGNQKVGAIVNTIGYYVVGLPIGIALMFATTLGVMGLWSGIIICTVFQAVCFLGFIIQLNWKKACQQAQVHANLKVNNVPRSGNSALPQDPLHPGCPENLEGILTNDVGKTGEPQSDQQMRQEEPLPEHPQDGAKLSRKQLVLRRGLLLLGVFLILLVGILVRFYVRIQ

Row | SMILES | IC50 [1] [µM] | IC50 [2] [µM] | IC50 [3] [µM] | Cu,max/IC50 MATE1 [4]
1 | CC(C)CN(C[C@@H](O)[C@H](Cc1ccccc1)NC(=O)O[C@H]1CO[C@H]2OCC[C@H]21)S(=O)(=O)c1ccc(N)cc1 [Darunavir] | 30.6 ± 7.7 | > 100 |  | 
2 | CCC(CC)COC(=O)[C@H](C)N[P@](=O)(OC[C@H]1O[C@@](C#N)(c2ccc3c(N)ncnn23)[C@H](O)[C@@H]1O)Oc1ccccc1 [Remdesivir] | 3.5 ± 0.4 | 25 ± 6 | 10.1 ± 0.01 | 
3 | N#CC[C@H](C1CCCC1)n1cc(-c2ncnc3[nH]ccc23)cn1 [Ruxolitinib] | 17.4 ± 8.6 | > 100 | 9.7 ± 4.3 | 0.04
4 | CCCc1nn(C)c2c(=O)[nH]c(-c3cc(S(=O)(=O)N4CCN(C)CC4)ccc3OCC)nc12 [Sildenafil] | 39 ± 12.8 | 3.1 ± 2.5 | 19.8 ± 6.4 | 0.02
5 | CCOC(=O)c1c(CSc2ccccc2)n(C)c2cc(Br)c(O)c(CN(C)C)c12 [Umifenovir (Arbidol), Umifenovir] | 3.5 ± 1.2 | > 100 | 1.2 ± 0.1 | 0.13
